In patent US20250017888A1, “COMPOUNDS FOR TREATING DISEASES ASSOCIATED WITH HYALURONAN OVERPRODUCTION” (THE ROYAL VETERINARY COLLEGE, priority 2021, published 2025):

Tests used:
Type in all cases: cell-based
[1] = test system: bovine cartilage explants; assay: Proteoglycan loss from interleukin activated bovine cartilage explants; settings: Bos taurus; read-out: IC50 Inhibition of proteoglycan loss
Experimental: Cartilage explants were weighed (average wet weight: 20 mg) incubated in the absence and presence of IL-1 (2 ng/ml) and the inhibitors at various concentrations for 5 days. The tissues were extracted with 1.5 ml of a solution of 4 M guanidinium hydrochloride, 0.1 M ε-aminohexanoid acid, 5 mM benzamidine, 10 mM N-ethylmaleinimide, 0.5 mM phenylmethylsulfonyl fluoride for 3 days at 4° C. The solution was centrifuged for 5 min at 10.000 g and the proteoglycans were determined in the supernatant by the alcian blue method as described (Bjornsson, S., Anal. Biochem., 1993, 210, 282-291).
Bovine cartilage explants were incubated in the absence and presence of interleukin for stimulation of osteoarthritic reactions and the indicated concentrations of the xanthohumol-betaine (FIG. 6A), xanthohumol-prothiazole (FIG. 6B), quercetin-prothiazole (FIG. 6C), quercetin (FIG. 6D) and xanthohumol (FIG. 6E) for 5 days. The cartilage explants were weighed and the proteoglycan concentrations were determined in the cartilage explants (solid bars) and culture supernatants (open bars).

[2] = test system: chondrosarcoma cells (SW1353); assay: Alamar blue staining of chondrosarcoma; settings: Homo sapiens
Experimental: (§1) The hyaluronan synthase activity (Prehm, P. and Schumacher, U., Biochem. Pharmacol. 2004, 68, 1401-1410), the cytotoxicity of the drugs (O'Brien, J. et al., Eur. J. Biochem. 2000, 267, 5421-5426), proteoglycan synthesis rate, hyaluronan (Prehm, P. J. Rheumatol., 2005, 32, 690-696) and proteoglycan (Bjornsson, S. Anal. Biochem. 1993, 210, 282-291) were determined as described. The effect of the prenylflavonoids on the MRP5 export rate was measured with fluorescein diacetate as described (Schulz, T., Schumacher, U., and Prehm, P., J Biol. Chem., 2007, 282, 20999-21004). The determination of the IC50 values on the phosphodiesterase 5 was performed according to the instructions of BPS Bioscience. The culture of bovine chondrocytes in alginate beads and of explants of bovine cartilage was described previously (Deiters, B. and Prehm, P. Arthritis Res. Ther., 2008, 10, R8; Prehm, P. J. Rheumatol. 2005, 32, 690-696). Osteoarthritic reactions were induced in chondrocytes growing in alginate beads by incubation with medium containing 10 ng/ml of II-17 for 6 days, and in cartilage explants with 10 ng/ml of II-17 and 5 ng/ml of II-1α. The supernatants were withdrawn and stored at −20° C. for later analysis. The explants were weighed and extracted with 1 ml of 4 M guanidinium-HCl for 72 hours at 4° C. The proteoglycan concentrations were determined in the extracts.
Chondrosarcoma cells (SW1353 from the American Type Culture Collection) were grown in Dulbecco's medium supplemented with streptomycin/penicillin (100 units of each/ml), 10% foetal calf serum or in serum free Quantum medium supplemented with streptomycin/penicillin (100 units of each/ml), kanamycin (100 units/ml).

fibroblasts = assay: Alamar blue staining of fibroblasts; settings: Fibroblast
Experimental: as §1

[3] = Alamar blue toxicity assay (FIG. 1); settings: below concentrations of 100 μM
Experimental: as §1
The toxicity was determined by the Alamar blue assay.

[4] = test system: hyaluronan export from chondrosarcoma cells; assay: Inhibition of hyaluronan export / production in chondrosarcoma cells
Experimental: as §1
Chondrosarcoma cells were plated on a 96 well microtiter plate and in the presence of increasing flavonoid concentrations. After 2 days the concentration of hyaluronan was determined in the culture supernatant.

chondrosarcoma cells = assay: Uptake of flavonoids into chondrosarcoma cells by intracellular fluorescence
Experimental: Confluent monolayers of chondrosarcoma cells on 96 well microtiter plates were incubated with 100 μM solutions of flavonoids in serum-free Quantum medium. Changes in fluorescence were monitored from the bottom of the wells at excitation and emission wavelengths of 340 nm and 450 nm for xanthohumol and at 440 nm and 530 nm for quercetin, respectively.
Flavonoids are weakly fluorescent in aqueous buffer, but greatly enhance the fluorescence in the presence of proteins (Sengupta, B. and Sengupta, P. K., Biochem. Biophys. Res. Commun., 2002, 299, 400-403). This property was used to follow the uptake of quercetin and xanthohumol into chondrosarcoma cells.

bovine cartilage slices = assay: Collagen loss from cartilage explants (van Gieson staining); settings: Il-1α, Il-1β and Il-17; 12.5 μM and 50 μM; 14 days
Experimental: Cartilage explants were incubated with and without a mixture of 10 ng/ml of II-1α, 10 ng/ml of II-1β and 25 ng/ml of II-17 for 14 days. The addition of the cytokines was repeated daily. The tissues were fixed with 3.7% paraformaldehyde for 24 hours, imbedded in paraffin and stained by the van Giesson method.
Cartilage explants were incubated with and without a mixture of 10 ng/ml of 11-17 and 5 ng/ml of II-1α for 14 days. The addition of the cytokines was repeated daily. The tissues were fixed with 3.7% paraformaldehyde for 24 hours, imbedded in paraffin and stained by the van Gieson method (van Gieson, 1. (1889) Laboratory notes of technical methods for the nervous system. New York Medical Journal 50, 57-60).
It is known that hyaluronan overproduction leads to collagen degradation from cartilage (Deiters, B. and Prehm, P., Arthritis Res. Ther., 2008, 10, R8; Prehm, P., J. Rheumatol., 2005, 32, 690-696). […] Therefore cartilage explants were incubated with a mixture of the osteoarthritis inducing […] II-1α, II-1β and II-17 with 12.5 μM and 50 μM of the prenylflavonoids for 14 days and collagen was stained by the van Giesson method.

Question: With COc1cc(O)c(CC=C(C)C)c(O)c1C(=O)/C=C/c1ccc(O)cc1 [Xanthohumol, reference compound] as the compound, how does the IC50 [1] read?
Answer: 2.6 µM

Question: And the IC50 [2]?
Answer: 76 µM

Question: What about the IC50 (fibroblasts) of the same compound?
Answer: 55 µM

Question: What about the “toxicity in Alamar blue assay” value [3] of the same compound?
Answer: not toxic

Question: And the IC50 [4]?
Answer: 19 µM

Question: And the “uptake into chondrosarcoma cells (intracellular fluorescence)” value (chondrosarcoma cells)?
Answer: did not accumulate inside the cells

Question: And the “protection of cartilage from collagen loss” value (bovine cartilage slices)?
Answer: effective at protecting the cartilage from collagen loss
